Data on 8 substances can be found in PMC11832194, “Cystatin from Austrelaps superbus snake venom as a model for identifying potential inhibitors of Trypanosoma cruzi cruzain” (The Journal of Venomous Animals and Toxins Including …, 2025).

The target in series [1] is epimastigote forms of clone CL B5 of Trypanosoma cruzi. Put plainly: In vitro trypanocidal activity on epimastigotes (CPRG, β-galactosidase). The settings on record: T. cruzi CL B5 lacZ epimastigotes, 2.5 × 10^5 parasites/mL, 72 hours at 28°C, peptides 500-62.5 µM, CPRG read-out at 590 nm. It counts as cell-based. On the procedure:
To assess the trypanocidal activity of the synthetic peptides, epimastigote forms of clone CL B5 of Trypanosoma cruzi, transfected with the Escherichia coli β-galactosidase gene (lacZ), were used. The parasites were cultivated at 28°C in liver infusion tryptose (LIT) medium, supplemented with 10% fetal bovine serum (FBS) and the antibiotics penicillin and streptomycin. About 200 µL of epimastigotes at 2.5 × 10^5 parasites/mL concentration were plated in a 96-well plate. The parasites were incubated at 28°C for 72 hours with different concentrations of peptides (500-62.5 µM). Then, 50 µL of chlorophenol red-β-D-galactopyranoside (CPRG) solution was added, reaching a final concentration of 200 µM. The plate was incubated again at 37°C for 4 hours, and absorbance was monitored at 590 nm using a spectrophotometer (Synergy H1 multi-mode BIOTEK). Benznidazole was used as a positive control. The half maximal inhibitory concentration (IC50) was determined using GraphPad Prism (v.6.01) software.

For series [2], the system named is NCTC clone 929 fibroblasts. Nature of the series: In vitro cytotoxicity on fibroblasts (resazurin). It counts as cell-based, murine. To be noted: NCTC929 cells, 2 × 10^4 cells per well, 48 hours 37°C 5% CO2, peptides 500-62.5 µM, absorbance 570 and 600 nm. On the procedure:
In these experiments, NCTC clone 929 fibroblasts were cultured in a 96-well plate with 180 µL of minimal essential medium (MEM) supplemented with 10% FBS, penicillin and streptomycin antibiotics. About 2 × 10^4 cells per well were cultured and incubated at 37°C for 48 hours in a 5% CO2 environment with different concentrations of synthetic peptides (500-62.5 µM). Then, 20 µL of a resazurin solution was added, reaching a final concentration of 2 mM. The plate was incubated again at 37°C for 4 hours, and absorbance was monitored at 570 and 600 nm using a Synergy H1 multi-mode spectrophotometer (BIOTEK). GraphPad Prism software determined the half-maximal cytotoxic concentration (CC50) (v.6.01). The CC50 of the reference drug benznidazole was also determined to finally determine the selectivity index
Background: Resazurin is reduced to fluorescent resorufin, in cell work by metabolically active cells.

The target in the next series is T1, cruzain (Trypanosoma cruzi, UniProt P25779).
T1 construct: From 40 to 120 minutes, mature cruzain was obtained in a soluble and enzymatically active form; His tag (histidine tail); made in house; host or cells: E. coli BL21 DE3 (pET 21a (+) with the pro-cruzain gene)
Nature of the series: Inhibition of cruzain enzymatic (proteolytic) activity, casein substrate. The class given is biochemical. The settings on record: cruzain 50 μM, peptide 500 to 62.5 μM, 1% casein substrate, Tris-HCl 0.1 M pH 8, 37°C, absorbance 280 nm, read-out: I50(µM) ± SD, inhibition of cruzain proteolytic activity. On the procedure: Cruzain at a final concentration of 50 μM was incubated for 30 minutes at 37°C with various concentrations of AsCystatin (50-6.25 μM). Subsequently, 1% casein substrate diluted in Tris-HCl 0.1 M, pH 8, was added. The mixture was incubated again for 30 minutes at 37°C, and the reaction was stopped by adding 250 μL of 20% Trichloroacetic Acid (TCA), followed by a 30-minute rest period at room temperature. Finally, the mixture was centrifuged at 10,000 × g for 15 minutes. Enzymatic activity inhibition was estimated by recording the absorbance of the supernatant at 280 nm using a microplate spectrophotometer (BioTek Eon). The concentration required to inhibit 50% of cruzain enzymatic activity was determined using GraphPad Prism 6.0 software.
The peptides designed, as mentioned in the previous section, were synthesized by AminoTech (São Paulo, Brazil). Subsequently, the ability of the synthetic peptides to inhibit cruzain enzymatic activity was assessed. For this procedure, different concentrations of each peptide (500 to 62.5 μM) were incubated with 50 μM cruzain, and the steps detailed in the section […] were carried out.

Where [3] appears, read: read-out: IC50 (µM) ± SD, trypanocidal activity.

Read-outs that look alike come from different tables or passages of the source. No end group written: not given here.

T1 sequence (P25779 123-337): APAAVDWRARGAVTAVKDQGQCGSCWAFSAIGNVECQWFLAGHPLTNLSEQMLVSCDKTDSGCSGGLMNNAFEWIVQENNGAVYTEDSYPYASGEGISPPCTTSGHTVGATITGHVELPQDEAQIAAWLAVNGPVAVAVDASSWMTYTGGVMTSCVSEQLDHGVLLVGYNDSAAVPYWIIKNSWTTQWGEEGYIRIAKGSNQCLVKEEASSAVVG

As for GGLQVVTGPW [Pep5], the IC50 worked out at 475.5 ± 1.65 µM in series [1] (SD) and 220 ± 0.48 µM on cruzain (SD). Also, the “IC50 (µM) ± SD, cytotoxic activity” value in series [2] is given as more than 500 µM.
Regarding IPGGLSK [Pep1], the IC50 (in series [1] (setting [3]); on cruzain) was more than 500 µM in each case. Besides, in series [2], the “IC50 (µM) ± SD, cytotoxic activity” value is more than 500 µM.
With KGGLQVVTGAPWK [Pep7], the IC50 in series [1] (SD) amounted to 390.2 ± 2.1 µM; at cruzain (SD) it was 388.5 ± 1.22 µM. In addition, the “IC50 (µM) ± SD, cytotoxic activity” value in series [2] is more than 500 µM.
On to KGGLQVVTGPWK [Pep6], for which the IC50 was more than 500 µM in series [1] (setting [3]) and 384.6 ± 0.77 µM on cruzain (SD). The “IC50 (µM) ± SD, cytotoxic activity” value in series [2] is more than 500 µM.
As to KIPGGQVVTGPWK [Pep8], the results for the IC50 (in series [1] (SD); at cruzain (SD)) were 471.3 ± 1.8 µM and 281.5 ± 2.19 µM, respectively. Also, the “IC50 (µM) ± SD, cytotoxic activity” value in series [2] is more than 500 µM.
“KQVVTGK [Pep4, linear peptide derived from AsCystatin with lysine residues at each end]”: the IC50 (in series [1] (setting [3]); in the series with cruzain) was more than 500 µM each time. In series [2], the “IC50 (µM) ± SD, cytotoxic activity” value is more than 500 µM.
On to QSQVVTGAK [Pep3], for which the IC50 (in series [1] (setting [3]); at cruzain) was more than 500 µM each time. The “IC50 (µM) ± SD, cytotoxic activity” value in series [2] is more than 500 µM.
For QVVTG [Pep2], the IC50 (in series [1] (setting [3]); on cruzain) was more than 500 µM each time. In addition, in series [2], the “IC50 (µM) ± SD, cytotoxic activity” value is given as more than 500 µM.
